Test results published in patent US20240415793A1, “Neuroprotective composition comprising pyruvate and citrate” (N.V. Nutricia, priority 2022, published 2024).

Key:
[1] = test system: primary mouse neuroglial cultures; assay: Cell death by high content imaging (Hoechst/NeuN nuclear shrinkage) after chronic hyperstimulation; format: cell-based; conditions: 1 mM
Procedure: To determine whether pyruvate and citrate protect neurons and glial cells from cell death induced by chronic electrical hyperstimulation. To assess protection from cell death induced by repeated hyperstimulation, primary mouse neuroglial cultures were assayed. Neuroglial cell cultures were prepared and grown until DIV14 as described above. From DIV14 until DIV17 they were switched to NBM containing B27, low (2.5 mM) glucose, and low (0.1 mM) Mg^2+ or high (0.8 mM) Mg^2+. Incubation in low (0.1 mM) Mg^2+ medium increases the neuronal firing rates, thus creating a state of chronic hyperstimulation. The test nutrients (pyruvate or citrate) were supplied through the medium from DIV14 until DIV17. On DIV17, the cell nuclei were stained with the Hoechst dye and co-immunolabelled for NeuN, a protein found only in the nuclei of neurons. The neuronal and non-neuronal cell nuclei were scored for nuclear shrinkage, a hallmark of cell death, by high content imaging.
To assess cell death by high content imaging the cells were fixed on DIV17 in 1% formaldehyde, permeabilized with ethanol and incubated with a rabbit polyclonal IgG antibody against NeuN, a neuron-specific protein localized to the nucleus, followed by detection with a secondary anti-rabbit IgG antibody linked to a red fluorescent label. Neuronal and non-neuronal cell nuclei were then counterstained with the blue fluorescent nuclear dye Hoechst. The nuclei were counted by a high content imager based on signal intensity and size. A cut-off value was applied to exclude objects of low signal intensity considered noise. Then, cut-off values were applied to exclude objects with an area below 30 μM^2 considered cell debris and objects with an area above 300 μM^2 considered cell clumps. A boundary of 60 μM^2 was set to distinguish between nuclei from alive and dead cells. Objects areas of 30 μM^2 to 60 μM^2 were counted as nuclei from dead cells, while object areas of 60 μM^2 to 300 μM^2 were counted as nuclei from alive cells. The counting was done at 20-fold magnification on a fixed number of optical fields per well. The counts of nuclei from dead neurons or dead cells were related to the number of alive neurons or alive cells, respectively, in the same well.
Neuroglial cell cultures were supplemented with 1 mM citrate from DIV14 until DIV17. On DIV17, total cell death and neuron-specific cell death were quantified by high content imaging. The total number of Hoechst positive objects or NeuN positive objects prior to applying cut-off values for the signal intensity and the area size was equal between the different groups (FIG. 10 A, D).

[2] = test system: Phosphofructokinase 1 (PFK1); conditions: tissue- and brain-specific isoforms; cited from earlier work
[3] = test system: primary rat neuronal-glial cell cultures; assay: Seahorse assay (OCR/ECAR), acute 1 h nutrient pre-incubation, resting or seizure-like conditions; format: cell-based; conditions: 1 mM citrate
Procedure: A Seahorse assay was performed on primary rat neuronal-glial cell cultures to determine the impact of pyruvate and citric acid on glycolytic rates and lactate delivery, mitochondrial respiration and total (glycolytic and mitochondrial) ATP production.
Rat cortical cells were isolated from embryonic day 18 embryos using a combination of enzymatic and mechanical dissociation of brain cortical rat tissue. Immediately after dissociation, the cells were seeded at a density of 500′000 cells per mL in 96-well plates and grown at 37° C. for two weeks from day in vitro (DIV) 0 until DIV14 in Neurobasal medium supplemented with 2% (v/v) B27, 0.8 mM Magnesium (Mg2+), 25 mM glucose and 1% (v/v) Penicillin/Streptomycin. During this time neuronal axons grew out and formed synaptic contacts. In addition, glial cells, foremost astrocytes, grew and formed contacts with neurons. The incubation in 25 mM glucose accelerated the differentiation and network growth of neurons.
From DIV14 until DIV17, the cells were incubated in Neurobasal medium supplemented with 2% (v/v) B27, 0.8 mM Mg2+, 5 mM glucose and 1% (v/v) Penicillin/Streptomycin. The switch from high to low glucose was done to approach the low intracerebral glucose concentration of the human brain and create a more physiological metabolic environment.
The switch from 5 mM to 1 mM glucose matched the glucose concentrations in the human brain. Meanwhile the switch from high (0.8 mM) to low (0.1 mM) Mg^2+ increases the electrical firing frequency of neurons because Mg2+ is an inhibitor of excitatory NMDA-type ionotropic glutamate receptors, which account for most of the neuronal firing in this cell culture model. The increase in neuronal firing caused by incubation in 0.1 mM Mg^2+ increases the energy production of neurons and glial cells as reflected in the increase in basal respiration (FIG. 1B and E). After 1 hour of pre-incubation in the Seahorse medium containing the nutrients, the oxygen consumption rate [OCRs] and extracellular acidification rate [ECARs] of the neuroglial culture were measured in the Seahorse assay.
The oxygen consumption rates (OCRs) and extracellular acidification rates (ECARs) of cells seeded in 96-well plates were monitored in real time at 37° C. in unbuffered Hanks Balanced Salt Solution (HBSS). The OCRs represent foremost mitochondrial respiration, and to a minor extent non-mitochondrial respiration. The ECARs relate foremost to the acidification of the medium with lactate produced through glycolysis and secreted by the cells into the medium (Table 1).
During the Seahorse run, both the OCRs and ECARs were measured simultaneously at baseline and following the injection of compounds by the Seahorse instrument (Table 1). HBSS was supplemented with glucose from the start and no glucose was injected through the Seahorse instruments. Measurements were repeated three times at baseline and three times after each compound injection.
After the initial baseline measurement, oligomycin (OM) was injected. OM blocks mitochondrial ATP synthase (complex V) and therefore decreases mitochondrial respiration. The OCRs after OM injection are due to the mitochondrial proton leak. They enable to determine whether the test nutrients impact the proton leak. The difference in OCRs at baseline and after OM injection is the amount of oxygen used for mitochondrial ATP synthesis at baseline. From this difference in OCR, the mitochondrial ATP production rates are calculated.
After OM, uncoupling agent carbonyl cyanide-p- trifluoromethoxyphenyl-hydrazon [FCCP] was injected which collapses the proton gradient across the inner mitochondrial membrane established during respiration and required for ATP synthesis. The cells attempt to restore the proton gradient following FCCP injection by maximizing respiration. […]

## O=C(O)CC(O)(CC(=O)O)C(=O)O [citrate]
[1]; DIV14-DIV17, chronic hyperstimulation, FIG. 10C/11C
  increase in dead cell counts from high Mg2+ to low Mg2+ medium: ~4%
[1]; DIV14-DIV17, high (0.8 mM) Mg2+ medium, FIG. 10C/11C
  dead cell counts: ~19%
[1]; DIV14-DIV17, high Mg2+ medium, FIG. 10F/11F
  dead neuron count (neuron death): −1.5%
[1]; DIV14-DIV17, low (0.1 mM) Mg2+ medium, FIG. 10C/11C
  dead cell counts: ~23%
[1]; DIV14-DIV17, low Mg2+ medium, FIG. 10F/11F
  dead neuron count (neuron death): ~1.4%
[1]; DIV14-DIV17, FIG. 10B/11B
  effect on alive cell count: not impacting
[1]; DIV14-DIV17, FIG. 10F/11F
  effect on rise in neuron death induced by chronic hyperstimulation: entirely blocked
[2]
  concentrations at which PFK1 isoforms are inhibited: above 100 μM
[3]; 0.1 mM Mg2+ control medium, FIG. 3A
  increase in total (mitochondrial and glycolytic) ATP production: ~60%
[3]; 0.1 mM Mg2+ control medium, FIG. 3B
  increase in basal mitochondrial respiration: ~40%
[3]; 0.1 mM Mg2+ medium, FIG. 3C
  increase in basal glycolytic rates: ~20%
